Patent US20190106460A1, “BINDING INHIBITORS OF THE BETA. TRANSDUCIN REPEAT-CONTAINING PROTEIN” (priority 2011, published 2019)
Entries after “also recorded” stand apart in the source; their conditions may differ. Non-standard residues stand in square brackets, D forms with d. Residues, ends and D or L forms follow the SMILES beside them. *: point of attachment. Benzenesulfonyl(4-OMe) = COc1ccc(S(=O)(=O)*)cc1; Arachidoyl = CCCCCCCCCCCCCCCCCCCC(=O)*; Phe(3-F) = N[C@@H](Cc1cccc(F)c1)C(=O)O; Stearoyl = CCCCCCCCCCCCCCCCCC(=O)*; Tos = Cc1ccc(S(=O)(=O)*)cc1; Ahx = NCCCCCC(=O)O

What was measured:
Type in all cases: cell-based
[1] = tested on: PDCD4 in MCF7 cells; test: Traditional western blot for PDCD4, MCF7
Source text: […]

[2] = tested on: PDCD4 in MCF7 cells; test: In-cell western assay for PDCD4 accumulation; details: MCF7, treatment with cell permeable compound
Method: In-Cell Western Assay for PDCD4 Accumulation.
To measure this an in-cell western assay was used and the peptidomimetics were delivered to the cells by nucleofection.
MCF7 cells were grown in 10 cm dishes in 10 ml DMEM+10% FBS and 1% Pen/Strep at 37° C./5% CO2. On the day of nucleofection, the dish was washed with 90% confluent MCF7 cells with 5 ml PBS, then 3 ml of Trypsin/EDTA was added and incubated at 37° C./5% CO2 for approximately 5 mins until the cells detached from the plastic. 7 ml of normal growth media was added and the number of cells present was counted using a haemocytometer.
The cells were centrifuged cells at 90 g for 10 mins at RT and the supernatant was removed. 100 μl of Nucleofection Buffer V+ Supplement was added (Lonza Biologics Cat no VCA-1003) per 8×10^5 cells, and the cells were added to peptidomimetics dissolved in <3% DMSO.
The cell/peptidomimetic mix was added to cuvettes supplied for the nucleofector and the sample was nucleofected using the recommended MCF7 programme for high cell viability (i.e. E-014). 500 μl of TPA (12-O-tetradecanoylphorbol-13-acetate)-supplemented growth media (i.e. DMEM/10% FBS/1% Pen-Strep/10 nM TPA) was added to the cuvette and 100 μl of this solution was transferred to a well of a 96 well plate and incubated at 37° C./5% CO2 for 8 hours.
The celled were fixed by removing the growth media, adding 3.7% Formaldehyde in PBS and incubating at RT for 20 mins. The plate was washed three times in PBS. And the cells were permeabilised by washing 5× for 5 mins each in PBS+0.1% Triton X-100.
The cells were blocked by adding 3% BSA in PBS-Tween to the cells and incubating at RT for 1.5 hours. An anti-PDCD4 antibody (Abcam cat no: ab80590) was added at a concentration of 1:1000 in 3% BSA in PBS-T (50 ul/well) and incubated at RT for 2.5 hours. The cells were washed 5× for 5 mins each with PBS-T before the secondary antibody (LiCor Biosciences Donkey Anti-Rabbit IRDye 800CW cat no 926-32213) was added at a concentration of 1:1000, along with the DNA stain DRAQ5 at a concentration of 1:10000, in 3% BSA in PBS-T (50 ul/well) and incubated at RT for 1 hour, protected from light.
The cells were washed cells 5× for 5 mins each with PBS-T and all the liquid was removed from the wells before the plate was read on the LiCor Biosciences Odyssey at 700 nm and 800 nm. The reading was normalised in the 800 nm channel to that in the 700 nm channel. The data are shown in FIG. 12, where DMSO was used as a negative control and 20 μM MG132 was used as a positive control. The data is presented as percentage activity with DMSO=0% and […]=100% activity. Error bars represent standard deviation from 3 replicates.
The compounds shown in FIGS. 14A-14B were synthesised to improve cell permeability. […] FIG. 16 compares the round II compounds (shown in FIGS. 14A-14B) with UBP036 in this assay. […] Inhibition of βTrCP, which is responsible for the degradation of both PDCD4 and β-catenin, causes a concomitant stabilisation and accumulation of levels of these proteins which can be measured by in cell western assay.

[3] = tested on: PNT-1 cell line; test: xCELLigence cell growth, non-malignant PNT-1
Method: (§1) xCELLigence Method • Before starting the experiment add 50 μL of medium (RPMI 1640, 10% fetal bovine serum, 100 units/mL penicillin, 100 ug/mL streptomycin, and 2 mmol/L glutamine, all from GIBCO) to each well of 96 well E-plate (Roche) and place the plate in the xCELLigence platform to measure the background. • LNCaP/PNT-1 cells are seeded (LNCaPs 80000 cells/well; PNT1 3000 cells/well) in the plate in complete medium and equilibrated for 60 mins at RT before returning to the xCELLigence platform and incubating at 37° C./5% CO2. • 24 hrs after seeding, remove 100 μL of medium was removed from each well and cells were treated with compounds or DMSO diluted in 100 μL of OptiMEM (GIBCO). • Replace the plate in the xCELLigence platform • Cells growth can then be monitored in real-time by the cell index profile on the xCELLigence readout screen • Cell growth can be expressed as normalized cell index and doubling time/slope calculated using the RTCA software.
The susceptibility of cancer cell lines versus non-cancer cell lines following treatment with the compounds was also investigated.

[4] = tested on: PDCD4 in LNCaP cells; test: Traditional western blot for PDCD4, LNCaP
Source text: […]

[5] = tested on: LNCaP (prostate cancer); test: xCELLigence cell viability / proliferation, LNCaP
Method: Example 9—Cell Based Activity of Cell Permeable Compounds on the xCELLigence Platform
The effects of the compounds shown in FIGS. 14A-14B were tested on cancer cell lines MCF7 (breast cancer) and LNCaP (prostate cancer) using the xCELLigence platform (http://www.roche-applied-science.com/sis/xcelligence/ezhome.html). This method of measuring cell viability via measuring cell index is known in the art.
Different doses of the compounds were tested on MCF7 cells to see if there would be an effect on their cell viability.
The control compound was compared to its partner active compound (UBP037).
as §1

SMILES | PDCD4 accumulation, traditional western blot [1] | accumulation of PDCD4, in cell western [2] | cell growth, xCELLigence [3] | PDCD4 accumulation, traditional western blot [4] | cell growth / proliferation, xCELLigence [5]
CCCCCCCCCCCCCCCCCC(=O)NCCCC[C@H](NC(=O)CCCCCNC(=O)[C@H](CCC(=O)O)NC(=O)[C@H](Cc1c[nH]c2ccccc12)NC(=O)[C@H](Cc1cccc(F)c1)NC(=O)CNC(=O)[C@H](CCC(=O)O)NC(=O)[C@@H](CC(=O)O)NS(=O)(=O)c1ccc(OC)cc1)C(N)=O [UBP037, 4-(MeO)PhSO2-dEGF(3F)WE-Ahx-K(NHCOC17H35)-NH2] ({Benzenesulfonyl(4-OMe)}-[dD]EG[Phe(3-F)]WE[Ahx]K(Stearoyl)-NH2) | exhibited cellular activity | inconclusive results | far less effect | exhibited cellular activity | inhibit the growth; also recorded: severely restricts the proliferation
CCCCCCCCCCCCCCCCCC(=O)NCCCC[C@H](NC(=O)CCCCCNC(=O)[C@H](Cc1c[nH]c2ccccc12)NC(=O)CNC(=O)[C@H](CCC(=O)O)NC(=O)[C@H](Cc1ccccc1)NC(=O)[C@@H](CC(=O)O)NC(=O)[C@H](CCC(=O)O)NS(=O)(=O)c1ccc(C)cc1)C(N)=O [Ts-EdFEGW-Ahx-K(Stearic)-NH2, reference compound] (Tos-E[dD]FEGW[Ahx]K(Stearoyl)-NH2) | – | – | – | – | levels of cell proliferation similar to that seen with DMSO
CCCCCCCCCCCCCCCCCCCC(=O)NCCCC[C@H](NC(=O)CCCCCNC(=O)[C@H](CCC(=O)O)NC(=O)[C@H](Cc1c[nH]c2ccccc12)NC(=O)[C@H](Cc1cccc(F)c1)NC(=O)CNC(=O)[C@H](CCC(=O)O)NC(=O)[C@@H](CC(=O)O)NS(=O)(=O)c1ccc(OC)cc1)C(N)=O [UBP038, 4-(MeO)PhSO2-dEGF(3F)WE-Ahx-K(NHCOC19H39)-NH2] ({Benzenesulfonyl(4-OMe)}-[dD]EG[Phe(3-F)]WE[Ahx]K(Arachidoyl)-NH2) | exhibited cellular activity | inconclusive results | far less effect | exhibited cellular activity | inhibit the growth
